# Results taken from ChEMBL document CHEMBL1201862, “PubChem BioAssay data set” (2004).
#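 Assay format: 96-well plates, 48-hour exposure. GI50 = concentration required for 50% inhibition of growth.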 Active and inactive are the calls of the source. Rule as the data show it: active = GI50 up to about 1.1 µM and inactive = higher.
# How the values were obtained:
# Test in all cases: DTP human tumour cell line panel, 48 h
# [1] = test system: 786-0
# [2] = test system: A498
# [3] = test system: A549
# [4] = test system: ACHN
# [5] = test system: BT-549
# [6] = test system: CAKI-1
# [7] = test system: CCRF-CEM
# [8] = test system: COLO 205
# [9] = test system: DU-145
# [10] = test system: EKVX
# [11] = test system: HCC 2998
# [12] = test system: HCT-116
# [13] = test system: HCT-15
# [14] = test system: HL-60
# [15] = test system: HOP-62
# [16] = test system: HOP-92
# [17] = test system: HT-29
# [18] = test system: Hs-578T
# [19] = test system: IGROV-1
# [20] = test system: K562
# [21] = test system: KM12
# [22] = test system: LOX IMVI
# [23] = test system: M14
# [24] = test system: MCF7
# [25] = test system: MDA-MB-231
# [26] = test system: MDA-MB-435
# [27] = test system: MOLT-4
# [28] = test system: Malme-3M
# [29] = test system: NCI-H226
# [30] = test system: NCI-H23
# [31] = test system: NCI-H460
# [32] = test system: NCI-H522
# [33] = test system: NCI/ADR-RES
# [34] = test system: OVCAR-4
# [35] = test system: OVCAR-5
# [36] = test system: OVCAR-8
# [37] = test system: RPMI-8226
# [38] = test system: RXF 393
# [39] = test system: SF-268
# [40] = test system: SF-295
# [41] = test system: SF-539
# [42] = test system: SK-MEL-28
# [43] = test system: SK-MEL-2
# [44] = test system: SK-MEL-5
# [45] = test system: SK-OV-3
# [46] = test system: SN12C
# [47] = test system: SNB-19
# [48] = test system: SNB-75
# [49] = test system: SR
# [50] = test system: SW-620
# [51] = test system: T47D
# [52] = test system: TK-10
# [53] = test system: U-251
# [54] = test system: UACC-257
# [55] = test system: UACC-62
# [56] = test system: UO-31
# [57] = test system: OVCAR-3
# [58] = test system: PC-3
structure (smiles),measurement,setting,value
O=C(CCC1OCCO1)Nc1cc(NCc2ccccc2)ccc1OCc1ccccc1,GI50,[1],> 100 µM (inactive)
same,GI50,[2],30.5 µM (inactive)
same,GI50,[3],30.6 µM (inactive)
same,GI50,[4],33.5 µM (inactive)
same,GI50,[5],38.5 µM (inactive)
same,GI50,[6],20.7 µM (inactive)
same,GI50,[7],17 µM (inactive)
same,GI50,[8],22.3 µM (inactive)
same,GI50,[9],50.5 µM (inactive)
same,GI50,[10],21.2 µM (inactive)
same,GI50,[11],33 µM (inactive)
same,GI50,[12],48.9 µM (inactive)
same,GI50,[13],35.1 µM
same,GI50,[14],38.5 µM (inactive)
same,GI50,[15],> 100 µM (inactive)
same,GI50,[16],17.8 µM (inactive)
same,GI50,[17],27.7 µM (inactive)
same,GI50,[18],34.3 µM (inactive)
same,GI50,[19],41.6 µM (inactive)
same,GI50,[20],28.9 µM (inactive)
same,GI50,[21],30.1 µM (inactive)
same,GI50,[22],33.7 µM (inactive)
same,GI50,[23],59.6 µM (inactive)
same,GI50,[24],33.6 µM (inactive)
same,GI50,[25],42 µM (inactive)
same,GI50,[26],23.6 µM (inactive)
same,GI50,[27],20.5 µM (inactive)
same,GI50,[28],20.6 µM (inactive)
same,GI50,[29],38.4 µM (inactive)
same,GI50,[30],31.7 µM (inactive)
same,GI50,[31],39.1 µM (inactive)
same,GI50,[32],23.7 µM (inactive)
same,GI50,[33],43.1 µM (inactive)
same,GI50,[34],31.8 µM (inactive)
same,GI50,[35],46.9 µM (inactive)
same,GI50,[36],18.9 µM (inactive)
same,GI50,[37],20.1 µM (inactive)
same,GI50,[38],28.8 µM (inactive)
same,GI50,[39],63.8 µM (inactive)
same,GI50,[40],30.2 µM (inactive)
same,GI50,[41],30.4 µM (inactive)
same,GI50,[42],64.7 µM (inactive)
same,GI50,[43],21 µM (inactive)
same,GI50,[44],18.4 µM (inactive)
same,GI50,[45],68.5 µM (inactive)
same,GI50,[46],46.8 µM (inactive)
same,GI50,[47],40.3 µM (inactive)
same,GI50,[48],32.5 µM (inactive)
same,GI50,[49],27.9 µM (inactive)
same,GI50,[50],42.1 µM (inactive)
same,GI50,[51],69.5 µM (inactive)
same,GI50,[52],26.6 µM (inactive)
same,GI50,[53],37.1 µM (inactive)
same,GI50,[54],20.2 µM (inactive)
same,GI50,[55],28.1 µM (inactive)
same,GI50,[56],33.9 µM (inactive)
Nn1nnc2ccccc21,GI50,[1],> 100 µM (inactive)
same,GI50,[2],> 100 µM (inactive)
same,GI50,[3],> 100 µM (inactive)
same,GI50,[4],> 100 µM (inactive)
same,GI50,[5],> 100 µM (inactive)
same,GI50,[7],> 100 µM (inactive)
same,GI50,[8],> 100 µM (inactive)
same,GI50,[9],> 100 µM (inactive)
same,GI50,[10],> 100 µM (inactive)
same,GI50,[11],> 100 µM (inactive)
same,GI50,[12],> 100 µM (inactive)
same,GI50,[13],> 100 µM
same,GI50,[14],> 100 µM (inactive)
same,GI50,[15],> 100 µM (inactive)
same,GI50,[16],> 100 µM (inactive)
same,GI50,[17],> 100 µM (inactive)
same,GI50,[19],> 100 µM (inactive)
same,GI50,[20],> 100 µM (inactive)
same,GI50,[22],> 100 µM (inactive)
same,GI50,[23],> 100 µM (inactive)
same,GI50,[24],> 100 µM (inactive)
same,GI50,[25],> 100 µM (inactive)
same,GI50,[26],> 100 µM (inactive)
same,GI50,[27],> 100 µM (inactive)
same,GI50,[28],> 100 µM (inactive)
same,GI50,[29],> 100 µM (inactive)
same,GI50,[30],> 100 µM (inactive)
same,GI50,[31],> 100 µM (inactive)
same,GI50,[33],> 100 µM (inactive)
same,GI50,[57],> 100 µM (inactive)
same,GI50,[34],> 100 µM (inactive)
same,GI50,[35],> 100 µM (inactive)
same,GI50,[36],> 100 µM (inactive)
same,GI50,[58],> 100 µM (inactive)
same,GI50,[37],> 100 µM (inactive)
same,GI50,[39],> 100 µM (inactive)
same,GI50,[40],> 100 µM (inactive)
same,GI50,[42],> 100 µM (inactive)
same,GI50,[44],> 100 µM (inactive)
same,GI50,[45],> 100 µM (inactive)
same,GI50,[46],> 100 µM (inactive)
same,GI50,[47],> 100 µM (inactive)
same,GI50,[48],> 100 µM (inactive)
same,GI50,[49],> 100 µM (inactive)
same,GI50,[50],> 100 µM (inactive)
same,GI50,[51],> 100 µM (inactive)
same,GI50,[52],> 100 µM (inactive)
same,GI50,[53],> 100 µM (inactive)
same,GI50,[54],> 100 µM (inactive)
same,GI50,[55],> 100 µM (inactive)
same,GI50,[56],> 100 µM (inactive)
